The experiment addresses T1, full-length human Mineralocorticoid Receptor (MR) (Homo sapiens, UniProt P08235).
T1 construct: host or cells: PathHunter CHO-K1 cells
T1 sequence (P08235 1-984): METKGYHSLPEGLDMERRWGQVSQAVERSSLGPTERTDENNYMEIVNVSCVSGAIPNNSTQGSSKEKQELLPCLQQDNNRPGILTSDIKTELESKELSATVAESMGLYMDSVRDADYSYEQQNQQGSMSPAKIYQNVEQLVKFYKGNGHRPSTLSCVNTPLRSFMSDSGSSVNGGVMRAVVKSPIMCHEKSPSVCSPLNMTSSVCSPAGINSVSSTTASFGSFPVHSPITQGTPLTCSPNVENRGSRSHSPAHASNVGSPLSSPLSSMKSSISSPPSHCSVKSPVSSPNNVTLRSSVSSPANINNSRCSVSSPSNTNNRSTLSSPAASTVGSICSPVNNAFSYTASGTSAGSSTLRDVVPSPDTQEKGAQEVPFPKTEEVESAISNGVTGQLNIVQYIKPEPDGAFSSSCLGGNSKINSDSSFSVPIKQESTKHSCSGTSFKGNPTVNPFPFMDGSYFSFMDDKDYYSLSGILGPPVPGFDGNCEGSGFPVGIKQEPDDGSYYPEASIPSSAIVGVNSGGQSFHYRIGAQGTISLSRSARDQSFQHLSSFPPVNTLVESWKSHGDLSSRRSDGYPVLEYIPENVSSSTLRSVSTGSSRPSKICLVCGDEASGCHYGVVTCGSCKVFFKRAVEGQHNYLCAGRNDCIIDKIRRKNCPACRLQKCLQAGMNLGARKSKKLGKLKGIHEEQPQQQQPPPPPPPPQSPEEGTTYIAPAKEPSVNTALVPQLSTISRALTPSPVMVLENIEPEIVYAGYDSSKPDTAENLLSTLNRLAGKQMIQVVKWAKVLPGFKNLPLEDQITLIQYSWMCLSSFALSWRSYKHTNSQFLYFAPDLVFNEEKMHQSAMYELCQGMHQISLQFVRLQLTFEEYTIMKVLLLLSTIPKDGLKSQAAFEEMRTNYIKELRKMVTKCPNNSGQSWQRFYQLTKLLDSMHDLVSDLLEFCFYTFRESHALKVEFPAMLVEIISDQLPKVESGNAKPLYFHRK
The experiment can be described thus: human MR NH Pro assay (PathHunter protein:protein interaction, MR antagonism). The format is cell-based. The following applies: PathHunter CHO-K1 cells overexpressing human MR; aldosterone (0.3 nM), 6 hours at 37° C.; antagonism of MR binding to coactivator peptide; read-out: IC50 Rating.

The text below walks through data of patent publication US9085568B2, “Mineralocorticoid receptor antagonists” (Merck Sharp & Dohme Corp., priority 2011, dated 2015).

Structures are written as SMILES.

Protocol: The activity of the compounds of the present invention regarding mineralocorticoid receptor antagonism was evaluated using the following assay.
The human MR NH Pro assay is a commercially available PathHunter™ Protein: Protein interaction assay (DiscoveRx; http://www.discoverx.com/nhrs/prod-nhrs.php) that measures the ability of compounds to antagonize full-length human Mineralocorticoid Receptor (MR) binding to a coactivator peptide.
3× PathHunter Detection Reagents (Cat #93-0001) (need ˜6 ml/plate). […] Control Agonist: Aldosterone: Sigma cat #A9477 • Prepare stock solution—10 μM in DMSO kept at −20° C. • for assay, dilute in assay media to 1.8 or 6 nM (6× of final concentration=about 0.3 nM to about 1.0 nM) • 5. Cell line: PathHunter CHO-K1 MR cells Cat #93-0456C2, Lot No: 09B0913, from operation liquid nitrogen stock. • 6. […] Methods: • Assay Set Up and Calculations: • 1. Cells were grown in F12+FBS+Hygromycin+pen/strep+Genetin • 2. Cells were collected with 0.05% trypsin and the cell suspension was spun and resuspended in a volume of F12+1.5% CD-FBS and counted. • 3. The cells were resuspended to 4×10^5 cells/mL. • 4. Cells were (25 μL/well) added to the wells of a 384 well plate. • 5. The plate was then incubated at 37° C. over night in a humidified incubator with 5% CO2. • 6. Test compounds were titrated starting at 4.4 mM, 10-point titration in 1:3 dilution. • 7.
5 μL of assay media was added to all wells in column 23 and 24. • 5. Plates were incubated 6 hrs at 37° C., 5% CO2. • 6. 15 μL 3× DiscoveRx detection reagent was added to each well. • 7. Plates were incubated for 1 hour at room temperature (plates stored in the dark). • 8.

With `COc1cc(OC)cc(-c2nnc([C@@]3(Cc4ccccc4)NC(=O)N([C@H](C)c4ccccc4)C3=O)o2)c1` (single isomer, unassigned) [Compound 22], the IC50 (commonly the concentration that inhibits the measured activity by half) lay in the range of 500 to 2000 nM.
Take `COc1cc(N)cc(-c2nnc([C@@]3(Cc4ccccc4)OC(=O)N([C@H](C)c4ccccc4)C3=O)o2)c1` [Compound 10, (5R)-5-[5-(3-Amino-5-methoxyphenyl)-1,3,4-oxadiazol-2-yl]-5-benzyl-3-[(1R)-1-phenylethyl]-1,3-oxazolidine-2,4-dione]: the IC50 is 100 to 500 nM.
As to `COc1cc(OC)cc(-c2n[nH]c(C3(Cc4ccccc4)OC(=O)N([C@H](C)c4ccc(F)cc4)C3=O)n2)c1` (stereo partly drawn) [Compound 1, 5-Benzyl-5-[5-(3,5-dimethoxyphenyl)-4H-1,2,4-triazol-3-yl]-3-[(1R)-1-(4-fluorophenyl)ethyl]-1,3-oxazolidine-2,4-dione], the IC50 was 500 to 2000 nM.
To `C[C@H](c1ccccc1)N1C(=O)O[C@](Cc2ccccc2)(c2nnc(CC(F)(F)F)o2)C1=O` [Compound 11, (5R)-5-Benzyl-3-[(1R)-1-phenylethyl]-5-[5-(2,2,2-trifluoroethyl)-1,3,4-oxadiazol-2-yl]-1,3-oxazolidine-2,4-dione] belongs 500 to 2000 nM.
To `C[C@H](c1ccccc1)N1C(=O)O[C@](Cc2ccccc2)(c2nnc(C3(c4cc(F)cc(F)c4)CC3)o2)C1=O` [Compound 9, (5R)-5-Benzyl-5-{5-[1-(3,5-difluorophenyl)cyclopropyl]-1,3,4-oxadiazol-2-yl}-3-[(1R)-1-phenylethyl]-1,3-oxazolidine-2,4-dione] belongs 100 to 500 nM.
On to `C[C@H](c1ccccc1)N1C(=O)O[C@](Cc2ccccc2)(c2nnc(C3(C(F)(F)F)CC3)o2)C1=O` [Compound 12, (5R)-5-Benzyl-3-[(1R)-1-phenylethyl]-5-{5-[1-(trifluoromethyl)cyclopropyl]-1,3,4-oxadiazol-2-yl}-1,3-oxazolidine-2,4-dione], for which the IC50 lay within 500 to 2000 nM.
For the molecule `COc1cc(Cc2nnc([C@@]3(Cc4ccccc4)OC(=O)N([C@H](C)c4ccccc4)C3=O)o2)cc(OC)c1` [Compound 2, (5R)-5-Benzyl-5-[5-(3,5-dimethoxybenzyl)-1,3,4-oxadiazol-2-yl]-3-[(1R)-1-phenylethyl]-1,3-oxazolidine-2,4-dione], the IC50 was less than 100 nM.
Turning to `C[C@H](c1ccccc1)N1C(=O)O[C@](Cc2ccccc2)(c2nnc(C3(c4ccncc4)CC3)o2)C1=O` [Compound 14, (5R)-5-Benzyl-3-[(1R)-1-phenylethyl]-5-[5-(1-pyridin-4-ylcyclopropyl)-1,3,4-oxadiazol-2-yl]-1,3-oxazolidine-2,4-dione], the IC50 lay in the range of 100 to 500 nM.
